Measurements taken from US11814367B2, “Inhibitors of glycogen synthase 1 (GYS1) and methods of use thereof” (Maze Therapeutics, Inc., priority 2021, dated 2023).

How the values were obtained:
[1] = target: hGYS1 enzyme (recombinant hGYS1/GN1 protein) (Homo sapiens (Human), UniProt P13807); test: GYS1 coupled enzyme assay (PK/LDH); format: biochemical; conditions: hGYS1/GN1 50 nM, UDP-Glucose 0.8 mM, G6P 1 mM; geometric mean of at least 2 runs
[2] = target: hGYS2 enzyme (recombinant hGYS2/GN1 protein) (Homo sapiens (Human), UniProt P54840); test: GYS2 coupled enzyme assay (PK/LDH); format: biochemical; conditions: geometric mean of at least 2 assay runs on separate days, read-out: Avg_IC50
In short: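 Continuous PK/LDH-coupled readout of NADH loss at 340 nm over 10 min, with 200 nM hGYS2/GN1 and 2 mM each of UDP-glucose, glucose-6-phosphate and PEP, in 50 mM Tris pH 7.5 with 0.2% glycogen and 2.5% DMSO. Slopes were normalized to controls and IC50s fit to a Hill curve from duplicates.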

Chain of hGYS2 enzyme (recombinant hGYS2/GN1 protein) (P54840 whole entry): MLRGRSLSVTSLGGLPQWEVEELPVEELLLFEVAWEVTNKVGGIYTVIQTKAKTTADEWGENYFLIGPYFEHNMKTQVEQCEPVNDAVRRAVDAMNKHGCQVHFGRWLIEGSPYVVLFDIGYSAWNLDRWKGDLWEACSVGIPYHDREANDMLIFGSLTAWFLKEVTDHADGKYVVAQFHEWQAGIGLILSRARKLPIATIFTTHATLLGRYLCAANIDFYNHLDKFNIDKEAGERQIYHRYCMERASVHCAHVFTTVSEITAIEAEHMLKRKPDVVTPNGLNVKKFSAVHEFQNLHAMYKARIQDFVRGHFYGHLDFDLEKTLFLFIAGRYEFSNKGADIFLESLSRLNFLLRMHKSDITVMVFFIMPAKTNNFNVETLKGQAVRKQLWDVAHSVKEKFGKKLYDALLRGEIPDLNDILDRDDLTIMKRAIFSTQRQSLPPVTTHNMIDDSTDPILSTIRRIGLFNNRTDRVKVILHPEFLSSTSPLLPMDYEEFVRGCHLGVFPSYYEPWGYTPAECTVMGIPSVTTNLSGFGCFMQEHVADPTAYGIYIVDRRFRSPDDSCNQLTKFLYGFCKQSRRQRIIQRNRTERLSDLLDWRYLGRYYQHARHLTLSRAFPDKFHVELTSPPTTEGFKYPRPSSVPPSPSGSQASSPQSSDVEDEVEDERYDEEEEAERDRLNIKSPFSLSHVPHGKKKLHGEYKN
Chain of hGYS2 enzyme (recombinant hGYS2/GN1 protein) (P46976 whole entry partner): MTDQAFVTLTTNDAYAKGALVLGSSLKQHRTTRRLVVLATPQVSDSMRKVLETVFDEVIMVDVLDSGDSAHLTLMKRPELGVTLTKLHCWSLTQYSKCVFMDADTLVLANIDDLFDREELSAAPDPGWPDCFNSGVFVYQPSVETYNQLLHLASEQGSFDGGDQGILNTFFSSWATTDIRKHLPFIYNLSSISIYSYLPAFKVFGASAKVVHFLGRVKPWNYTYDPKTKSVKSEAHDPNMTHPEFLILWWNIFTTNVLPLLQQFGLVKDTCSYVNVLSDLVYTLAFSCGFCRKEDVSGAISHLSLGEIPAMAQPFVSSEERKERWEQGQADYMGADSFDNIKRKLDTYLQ
Chain of hGYS1 enzyme (recombinant hGYS1/GN1 protein) (P13807 whole entry): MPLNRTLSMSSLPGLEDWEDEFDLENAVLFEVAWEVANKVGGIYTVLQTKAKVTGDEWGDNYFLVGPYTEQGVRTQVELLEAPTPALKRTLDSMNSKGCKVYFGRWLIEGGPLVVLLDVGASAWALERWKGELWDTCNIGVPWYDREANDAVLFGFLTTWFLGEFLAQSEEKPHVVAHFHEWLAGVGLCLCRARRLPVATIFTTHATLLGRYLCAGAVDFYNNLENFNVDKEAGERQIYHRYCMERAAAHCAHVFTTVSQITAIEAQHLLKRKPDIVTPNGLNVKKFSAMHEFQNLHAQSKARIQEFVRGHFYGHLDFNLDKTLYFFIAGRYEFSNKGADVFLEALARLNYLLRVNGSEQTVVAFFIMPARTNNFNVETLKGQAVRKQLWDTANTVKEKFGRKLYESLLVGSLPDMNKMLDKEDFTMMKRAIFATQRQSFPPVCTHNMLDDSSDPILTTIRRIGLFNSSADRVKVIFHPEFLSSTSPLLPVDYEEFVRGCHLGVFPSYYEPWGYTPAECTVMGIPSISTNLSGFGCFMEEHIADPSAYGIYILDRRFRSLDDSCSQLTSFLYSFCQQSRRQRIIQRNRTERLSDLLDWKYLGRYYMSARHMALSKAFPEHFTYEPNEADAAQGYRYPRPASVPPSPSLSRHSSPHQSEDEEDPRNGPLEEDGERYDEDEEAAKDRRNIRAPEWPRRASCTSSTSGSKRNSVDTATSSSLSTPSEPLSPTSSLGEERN
Chain of hGYS1 enzyme (recombinant hGYS1/GN1 protein) (P46976 whole entry partner): as the sequence (P46976 whole entry partner) above

SMILES | IC50 [1] [nM] | IC50 [2] [nM]
CC(C)c1ccc([C@@H](NC(=O)[C@@H]2C[C@@H](F)CN2C(=O)[C@@H]2CCC(=O)N2C)c2ccccc2)cc1 [Compound 57, (2S,4R)-4-fluoro-1-[(2S)-1-methyl-5-oxopyrrolidine-2-carbonyl]-N-[(S)-phenyl[4-(propan-2-yl)phenyl]methyl]pyrrolidine-2-carboxamide] | 231 | > 100000
CC(C)c1ccc([C@@H](NC(=O)[C@@H]2C[C@@H](F)CN2C(=O)C2CCC(=O)NC2)c2ccccc2)cc1 (stereo partly drawn) [Compound 58, (2S,4R)-4-fluoro-1-(6-oxopiperidine-3-carbonyl)-N-[(S)-phenyl[4-(propan-2-yl)phenyl]methyl]pyrrolidine-2-carboxamide] | 145 | > 100000
CC(C)c1ccc([C@@H](NC(=O)[C@@H]2C[C@@H](F)CN2C(=O)CCc2cnccn2)c2ccccc2)cc1 [Compound 59, (2S,4R)-4-fluoro-N-[(S)-phenyl[4-(propan-2-yl)phenyl]methyl]-1-[3-(pyrazin-2-yl)propanoyl]pyrrolidine-2-carboxamide] | 85 | > 100000
CC(C)c1ccc([C@@H](NC(=O)[C@@H]2C[C@@H](F)CN2C(=O)CCc2cncnc2)c2ccccc2)cc1 [Compound 60, (2S,4R)-4-fluoro-N-[(S)-phenyl[4-(propan-2-yl)phenyl]methyl]-1-[3-(pyrimidin-5-yl)propanoyl]pyrrolidine-2-carboxamide] | 188 | > 100000
COc1nn(C)cc1C(=O)N1C[C@H](F)C[C@H]1C(=O)N[C@@H](c1ccccc1)c1ccc(C(C)C)cc1 [Compound 61, (2S,4R)-4-fluoro-1-(3-methoxy-1-methyl-1H-pyrazole-4-carbonyl)-N-[(S)-phenyl[4-(propan-2-yl)phenyl]methyl]pyrrolidine-2-carboxamide] | 243 | > 100000
Cc1nnc(CCC(=O)N2C[C@H](F)C[C@H]2C(=O)N[C@@H](c2ccccc2)c2ccc(C(C)C)cc2)s1 [Compound 62, (2S,4R)-4-fluoro-1-[3-(5-methyl-1,3,4-thiadiazol-2-yl)propanoyl]-N-[(S)-phenyl[4-(propan-2-yl)phenyl]methyl]pyrrolidine-2-carboxamide] | 64 | > 100000
CC(C)c1ccc([C@@H](NC(=O)[C@@H]2C[C@@H](F)CN2C(=O)Cc2cc(F)ccc2Cl)c2ccccc2)cc1 [Compound 63, (2S,4R)-1-[2-(2-chloro-5-fluorophenyl]acetyl]-4-fluoro-N-[(S)-phenyl[4-(propan-2-yl)phenyl]methyl]pyrrolidine-2-carboxamide] | 15 | > 100000
CC(C)c1ccc([C@@H](NC(=O)[C@@H]2C[C@@H](F)CN2C(=O)C(C)c2ccccn2)c2ccccc2)cc1 (stereo partly drawn) [Compound 64, (2S,4R)-4-fluoro-N-[(S)-phenyl[4-(propan-2-yl)phenyl]methyl]-1-[2-(pyridin-2-yl)propanoyl]pyrrolidine-2-carboxamide] | 81 | > 100000
CC(C)c1ccc([C@@H](NC(=O)[C@@H]2C[C@@H](F)CN2C(=O)CCc2ccccn2)c2ccccc2)cc1 [Compound 65, (2S,4R)-4-fluoro-N-[(S)-phenyl[4-(propan-2-yl)phenyl]methyl]-1-[3-(pyridin-2-yl)propanoyl]pyrrolidine-2-carboxamide] | 76 | > 100000
CC(C)c1ccc([C@@H](NC(=O)[C@@H]2C[C@@H](F)CN2C(=O)CNC(=O)N(C)C)c2ccccc2)cc1 [Compound 67, (2S,4R)-1-{2-[(dimethylcarbamoyl)amino]acetyl}-4-fluoro-N-[(S)-phenyl[4-(propan-2-yl)phenyl]methyl]pyrrolidine-2-carboxamide] | 10 | > 100000
CC(C)c1ccc([C@@H](NC(=O)[C@@H]2C[C@@H](F)CN2C(=O)Cn2nnc3ccccc32)c2ccccc2)cc1 [Compound 68, (2S,4R)-1-[2-(1H-1,2,3-benzotriazol-1-yl)acetyl]-4-fluoro-N-[(S)-phenyl[4-(propan-2-yl)phenyl]methyl]pyrrolidine-2-carboxamide] | 34 | > 100000
Cc1nc(CC(=O)N2C[C@H](F)C[C@H]2C(=O)N[C@@H](c2ccccc2)c2ccc(C(C)C)cc2)c(C)s1 [Compound 69, (2S,4R)-1-[2-(2,5-dimethyl-1,3-thiazol-4-yl)acetyl]-4-fluoro-N-[(S)-phenyl[4-(propan-2-yl)phenyl]methyl]pyrrolidine-2-carboxamide] | 36 | > 100000
Cc1noc(C)c1CC(=O)N1C[C@H](F)C[C@H]1C(=O)N[C@@H](c1ccccc1)c1ccc(C(C)C)cc1 [Compound 70, (2S,4R)-1-[2-(3,5-dimethyl-1,2-oxazol-4-yl)acetyl]-4-fluoro-N-[(S)-phenyl[4-(propan-2-yl)phenyl]methyl]pyrrolidine-2-carboxamide] | 50 | > 100000
CC(C)c1ccc([C@@H](NC(=O)[C@@H]2C[C@@H](F)CN2C(=O)C(C)n2ccccc2=O)c2ccccc2)cc1 (stereo partly drawn) [Compound 73, (2S,4R)-4-fluoro-1-[2-(2-oxo-1,2-dihydropyridin-1-yl)propanoyl]-N-[(S)-phenyl[4-(propan-2-yl)phenyl]methyl]pyrrolidine-2-carboxamide] | 105 | > 100000
CC(C)c1ccc([C@@H](NC(=O)[C@@H]2C[C@@H](F)CN2C(=O)CCCn2ccnc2)c2ccccc2)cc1 [Compound 75, (2S,4R)-4-fluoro-1-[4-(1H-imidazol-1-yl)butanoyl]-N-[(S)-phenyl[4-(propan-2-yl)phenyl]methyl]pyrrolidine-2-carboxamide] | 224 | > 100000
CC(C)c1ccc([C@@H](NC(=O)[C@@H]2C[C@@H](F)CN2C(=O)CCc2cnn(C)c2)c2ccccc2)cc1 [Compound 76, (2S,4R)-4-fluoro-1-[3-(1-methyl-1H-pyrazol-4-yl)propanoyl]-N-[(S)-phenyl[4-(propan-2-yl)phenyl]methyl]pyrrolidine-2-carboxamide] | 106 | > 100000
COc1cccc(CC(=O)N2C[C@H](F)C[C@H]2C(=O)N[C@@H](c2ccccc2)c2ccc(C(C)C)cc2)n1 [Compound 81, (2S,4R)-4-fluoro-1-[2-(6-methoxypyridin-2-yl)acetyl]-N-[(S)-phenyl[4-(propan-2-yl)phenyl]methyl]pyrrolidine-2-carboxamide] | 25 | > 100000
Cc1cc(CC(=O)N2C[C@H](F)C[C@H]2C(=O)N[C@@H](c2ccccc2)c2ccc(C(C)C)cc2)nn1C [Compound 83, (2S,4R)-1-[2-(1,5-dimethyl-1H-pyrazol-3-yl)acetyl]-4-fluoro-N-[(S)-phenyl[4-(propan-2-yl)phenyl]methyl]pyrrolidine-2-carboxamide] | 15 | > 100000
Cc1n[nH]c(C)c1CC(=O)N1C[C@H](F)C[C@H]1C(=O)N[C@@H](c1ccccc1)c1ccc(C(C)C)cc1 [Compound 84, (2S,4R)-1-[2-(3,5-dimethyl-1H-pyrazol-4-yl)acetyl]-4-fluoro-N-[(S)-phenyl[4-(propan-2-yl)phenyl]methyl]pyrrolidine-2-carboxamide] | 10 | > 100000
CC(C)c1ccc([C@@H](NC(=O)[C@@H]2C[C@@H](F)CN2C(=O)CN2CCCCC2=O)c2ccccc2)cc1 [Compound 85, (2S,4R)-4-fluoro-1-[2-(2-oxopiperidin-1-yl)acetyl]-N-[(S)-phenyl[4-(propan-2-yl)phenyl]methyl]pyrrolidine-2-carboxamide] | 154 | > 100000
CC(C)c1ccc([C@@H](NC(=O)[C@@H]2C[C@@H](F)CN2C(=O)Cc2c[nH]c3ccccc23)c2ccccc2)cc1 [Compound 86, (2S,4R)-4-fluoro-1-[2-(1H-indol-3-yl)acetyl]-N-[(S)-phenyl[4-(propan-2-yl)phenyl]methyl]pyrrolidine-2-carboxamide] | 12 | > 100000
CC(C)c1ccc([C@@H](NC(=O)[C@@H]2C[C@@H](F)CN2C(=O)Cc2noc(C(C)C)n2)c2ccccc2)cc1 [Compound 87, (2S,4R)-4-fluoro-N-[(S)-phenyl[4-(propan-2-yl)phenyl]methyl]-1-{2-[5-(propan-2-yl)-1,2,4-oxadiazol-3-yl]acetyl}pyrrolidine-2-carboxamide] | 28 | > 100000
COc1ccc(CC(=O)N2C[C@H](F)C[C@H]2C(=O)N[C@@H](c2ccccc2)c2ccc(C(C)C)cc2)cc1 [Compound 88, (2S,4R)-4-fluoro-1-[2-(4-methoxyphenyl)acetyl]-N-[(S)-phenyl[4-(propan-2-yl)phenyl]methyl]pyrrolidine-2-carboxamide] | 49 | > 100000
COc1ccc(CC(=O)N2C[C@H](F)C[C@H]2C(=O)N[C@@H](c2ccccc2)c2ccc(C(C)C)cc2)cc1F [Compound 89, (2S,4R)-4-fluoro-1-[2-(3-fluoro-4-methoxyphenyl)acetyl]-N-[(S)-phenyl[4-(propan-2-yl)phenyl]methyl]pyrrolidine-2-carboxamide] | 60 | > 100000
COc1ccc(F)cc1CC(=O)N1C[C@H](F)C[C@H]1C(=O)N[C@@H](c1ccccc1)c1ccc(C(C)C)cc1 [Compound 90, (2S,4R)-4-fluoro-1-[2-(5-fluoro-2-methoxyphenyl)acetyl]-N-[(S)-phenyl[4-(propan-2-yl)phenyl]methyl]pyrrolidine-2-carboxamide] | 32 | > 100000
Cc1ccccc1OCC(=O)N1C[C@H](F)C[C@H]1C(=O)N[C@@H](c1ccccc1)c1ccc(C(C)C)cc1 [Compound 91, (2S,4R)-4-fluoro-1-[2-(2-methylphenoxy)acetyl]-N-[(S)-phenyl[4-(propan-2-yl)phenyl]methyl]pyrrolidine-2-carboxamide] | 47 | > 100000
